Columns and labels:
Assay type in all cases: in vivo, Sprague-Dawley rats
growth plate = experiment: Changes in cartilaginous tissues within the growth plate (H&E staining); details: rats, after 10-day administration, FIGS. 5A-7
Protocol: (§1) 3 weeks-old, male Sprague-Dawley rats were obtained and stabilized for 3 days. The feeding conditions included the temperature of 24±2° C., the light-dark cycle of 12 hours, and common solid feed without the inclusion of antibiotics. While the Control group was treated with saline solution, the bamboo (Bambusae caulis in Taeniam) extract, which was prepared in the powder form as described in the above example 1 and added with water, was orally administered once daily. The Positive Control group was treated subcutaneously with the injection of Eutropin (LG Life Sciences, South Korea) at 20 μg/kg once daily.
(§2) The administered substances and dosages in each group are as follows: • Control Group: normal saline solution 1 ml • Positive Control Group: growth hormone 20 μg/kg • Bamboo (Bambusae caulis in Taeniam)-treated Group: 200 mg/kg
(§3) After 10 days of feeding and administration of the above-mentioned substances, the rats were sacrificed with autopsy performed to find the following results.
In order to measure the length of the growth plate zone, the cartilaginous tissues were fixated after autopsy, followed by H&E staining and microscope examination. The length of the growth plate zone was measured five(5) times for each sample. The resulting mean values as obtained were used as a representative value for evaluating their significance.

osteocalcin = experiment: Osteoblast-activating factor osteocalcin in the serum (ELISA); details: rats, after 10-day administration, in comparison with the Control group, FIG. 10
Protocol: as §1, §2, §3
After the completion of the administration, blood was collected from the hearts of the experimental rats and coagulated. Serum was then separated so as to obtain samples. Subsequently, the total level of osteocalcin in the serum was measured by using Rat Ostecalcin/Bone Gla Protein. OT/BGP ELISA Kit (Cusabio, product no.: CSB-E05129r).

[1] = Change in body weight of experimental animals; details: rats, observation of 10 days, FIG. 1 (bamboo extract 200 mg/kg oral; GH 20 μg/kg s.c.)
Protocol: as §1
Regarding the administration method of the bamboo (Bambusae caulis in Taeniam) extract according to the present invention, rats in all the groups except for the Positive Control group were administered into their oral cavities, while all the rats were administered once daily.
The administered substances and dosages in each group are as follows: • Control Group: normal saline solution 1 ml • Positive Control Group: growth hormone 20 μg/kg • Bamboo (Bambusae caulis in Taeniam)-treated Group: 200 mg/kg […]
Rats of each group in Experiment <1-1> were tested for their body weight at pre- and post-feeding of 10 days. […] The measured values were statistically analyzed for mean value and standard deviation.

tibia = experiment: Measurement of changes in tibia length by X-ray; details: rats, after 10-day administration, vs Control group, FIGS. 3A-3C & 4
Protocol: as §1, §2, §3
After 10-day administration as described in Experiment <1-1>, both right and left tibias of the rats in the experimental group (i.e. Bamboo (Bambusae caulis in Taeniam) extract-treated group) and the control groups were collected, followed by the removal of the muscles, fats and ligaments attached to the bone tissues. […] Tibia length was measured by X-ray radiographs on the tibias.

With “GH: Growth hormone positive control, Eutropin (LG Life Sciences, South Korea), injected subcutaneously at 20 μg/kg once daily” the “Length of the hypertrophic zone within the growth plate” value (growth plate) was “increased greater than that of the Control group”, the “Length of the proliferative zone within the growth plate” value (growth plate) was “increased greater than that of the Control group” and the “Level of osteocalcin in the serum” value (osteocalcin) was “significantly increased”. The Weight change [1] was “no significant difference in weight change” and the Total tibia length (tibia) was “increased greater than that of the Control group”.
